Assays:
[1] = In vitro electrotransport of nesiritide across heat-separated human epidermis (ET cells, solution donor); assay type: in vitro ADME
Experimental: Nesiritide was screened in vitro for its electrotransport (ET) properties with heat-separated human epidermis/stratum corneum (skin).
In vitro electrotransport of nesiritide across heat-separated human epidermis/stratum corneum was conducted using anodic drive with ET cells in three separate sets of experiments, using human epidermis from three sources under the conditions set forth in the table below.
The pH of donor solutions was monitored before and after the experiments. The amount of passive transport was determined in fully assembled ET cells, incubated at 32° C. for 1 hour, with subsequent analysis of the receptor solution by RP-HPLC. […] The applied constant current was 100 μA/cm^2. The receptor solution was removed for analysis and replenished at 2 hour intervals during the first eight hours of testing, and then after 24 hours and 26 hours. The voltage drop across each cell was monitored at intervals throughout the experiment. Additionally, after the completion of transport studies, the solutions from some donor compartments were removed and analyzed either for evidence of peptide degradation or for pH changes.
When comparing data obtained using different conditions during ET Flux, it is thought to be more useful to compare the median values for each case (Holladay, L. A. 1995; personal communications). The use of the median as a figure of merit for ET flux data decreases the impact of both measurement and recovery problems for cells with low transport values. It also minimizes the impact of data from ECs with higher values, which may represent skin that was partially leaking. In order to compare the values of the median from different studies, it is necessary to have an estimate of the confidence interval for each median. If the values for the medians are different, but the confidence intervals overlap, then the results are not truly distinguished. For this work with nesiritide, a Bootstrap method (Diciccio, T. J., Romano, J. P. A Review of Bootstrap Confidence Intervals, J. R. Statist Soc B, 1988; 50 338-354; Efron, B., Tibshirani, R. Bootstrap Methods for Standard errors, Confidence Intervals, and Other Measures of Statistical Accuracy, Statistical Science, 1986; 1 54-77) was used to determine 95% and 67% confidence intervals for the data sets compared. The method estimates the intervals using considerable amounts of computation; 32,000 trials of the algorithm were used for these analyses.

[2] = In vitro electrotransport of nesiritide using hydrogel reservoirs; assay type: in vitro ADME; settings: heat separated human epidermis
Experimental: Suitable nesiritide flux rates can be achieved by selecting appropriate electrotransport conditions. […] The data shown in the figure were obtained using the transdermal delivery of nesiritide with a silver donor electrode at the anode and a silver chloride counter electrode at the cathode. […] The tests were performed on heat separated human epidermis.
In vitro electrotransport flux experiments were conducted using either synthetic polymeric Nulepore membranes or heat separated human cadaver epidermis. Custom-built horizontal diffusion cells were used for all in vitro skin flux experiments. Silver and silver chloride electrodes were used to apply current across the cell. Nesiritide hydrogels were placed between the silver anode and human heat-separated epidermis. In addition, a PVOH hydrogel containing a polymeric chloride source was placed between the silver anode and the drug hydrogel. A 1/10 dilution of Dulbecco's phosphate buffered saline (0.015 M NaCl) served as the receptor solution, which was continuously pumped through the receptor compartment. […]
(§1) The receptor samples were analyzed for nesiritide using a HPLC assay. In addition, as show in FIGS. 6B and 7B, formulations were also extracted for nesiritide and analyzed via a HPLC assay after use in a flux experiment.

[3] = In use stability of hydrogel formulations under electrotransport conditions (HPLC); assay type: physicochemical; settings: hydrogel formulation, over 24 hours, at 0.1 mA/cm^2 and 32° C.
Experimental: In vitro electrotransport flux experiments were conducted using either synthetic polymeric Nulepore membranes or heat separated human cadaver epidermis. Custom-built horizontal diffusion cells were used for all in vitro skin flux experiments. Silver and silver chloride electrodes were used to apply current across the cell. Nesiritide hydrogels were placed between the silver anode and human heat-separated epidermis. In addition, a PVOH hydrogel containing a polymeric chloride source was placed between the silver anode and the drug hydrogel. A 1/10 dilution of Dulbecco's phosphate buffered saline (0.015 M NaCl) served as the receptor solution, which was continuously pumped through the receptor compartment. At multiple time points, receptor samples for HPLC analysis were collected using a custom-built, automated Hanson Research Microette™ collection system.
as §1

[4] = 8 hour delivery, study a & c, fresh skin, combine 1 mM & 3 mM, 100 μA/cm^2
[5] = 8 hour delivery, study a & c, fresh skin, donor 1 mM, 100 μA/cm^2
[6] = 8 hour delivery, study b, frozen skin, donor 1 mM, 100 μA/cm^2
[7] = 8 hour delivery, study b, frozen skin, donor 3 mM, 100 μA/cm^2
[8] = 8 hour delivery, study c, fresh skin, donor 3 mM, 100 μA/cm^2

CC[C@H](C)[C@@H]1NC(=O)[C@H](CCCNC(=N)N)NC(=O)[C@H](CC(=O)O)NC(=O)[C@H](CCSC)NC(=O)[C@H](CCCCN)NC(=O)[C@H](CCCNC(=N)N)NC(=O)CNC(=O)[C@H](Cc2ccccc2)NC(=O)[C@@H](NC(=O)CNC(=O)[C@H](CO)NC(=O)CNC(=O)[C@H](CCC(N)=O)NC(=O)[C@@H](NC(=O)[C@H](CCSC)NC(=O)[C@H](CCCCN)NC(=O)[C@@H]2CCCN2C(=O)[C@@H](N)CO)C(C)C)CSSC[C@@H](C(=O)N[C@@H](CCCCN)C(=O)N[C@H](C(=O)N[C@@H](CC(C)C)C(=O)N[C@@H](CCCNC(=N)N)C(=O)N[C@@H](CCCNC(=N)N)C(=O)N[C@@H](Cc2c[nH]cn2)C(=O)O)C(C)C)NC(=O)CNC(=O)[C@H](CC(C)C)NC(=O)CNC(=O)[C@H](CO)NC(=O)[C@H](CO)NC(=O)[C@H](CO)NC(=O)[C@H](CO)NC1=O [Nesiritide, nesiritide]
comprehensive median value for transport through human skin ([1]; 1 mM and 3 mM donor combined, 95% confidence interval of 1.2-2.1): 1.6 μg cm^−2h^−1
Mean electrotransport flux ([1]; 1 mM and 3 mM, study a & c, sampling up to 8 h, fresh skin): 4.7 μg cm^−2 h^−1
Mean electrotransport flux ([1]; 1 mM and 3 mM, study b, sampling 8 h–26 h, frozen skin): 1.5 μg cm^−2 h^−1
Mean electrotransport flux ([1]; 1 mM and 3 mM, study b, sampling up to 8 h, frozen skin): 18.6 μg cm^−2 h^−1
Mean electrotransport flux ([1]; 1 mM and 3 mM, study c, sampling 8 h–26 h, fresh skin): 1.3 μg cm^−2 h^−1
Mean electrotransport flux [1, 4]: 4.7 μg cm^−2 h^−1
Median electrotransport flux [1, 4]: 1.6 μg cm^−2 h^−1
Mean electrotransport flux [1, 5]: 3.0 μg cm^−2 h^−1
Median electrotransport flux [1, 5]: 1.6 μg cm^−2 h^−1
Mean electrotransport flux [1, 6]: 10.7 μg cm^−2 h^−1
Median electrotransport flux [1, 6]: 6.3 μg cm^−2 h^−1
Mean electrotransport flux [1, 7]: 24.9 μg cm^−2 h^−1
Median electrotransport flux [1, 7]: 5.6 μg cm^−2 h^−1
Mean electrotransport flux [1, 8]: 8.2 μg cm^−2 h^−1
Median electrotransport flux [1, 8]: 2.0 μg cm^−2 h^−1
transport with respect to time ([1]; by 24 hours (FIG. 2)): approaches zero transport
median values for transport, donor 1 mM versus 3 mM ([1]; comparison of donor 1 mM and 3 mM (FIG. 3)): not significantly different
Median Transport ([1]; fresh skin, Mid-time 0): 0 μg cm^−2 h^−1
Median Transport ([1]; fresh skin, Mid-time 0.6): 4.00 μg cm^−2 h^−1
Median Transport ([1]; fresh skin, Mid-time 2.2): 2.01 μg cm^−2 h^−1
Median Transport ([1]; fresh skin, Mid-time 4.2): 1.55 μg cm^−2 h^−1
Median Transport ([1]; fresh skin, Mid-time 6.2): 1.06 μg cm^−2 h^−1
Median Transport ([1]; fresh skin, Mid-time 16): 0.37 μg cm^−2 h^−1
Median Transport ([1]; fresh skin, Mid-time 25): 0.80 μg cm^−2 h^−1
correlation between magnitude of applied current and steady state flux [2]: linear correlation
in vitro transport efficiency ([2]; silver donor electrode at anode, silver chloride counter electrode at cathode): about 0.14 mg/mAhr
in use stability under electrotransport conditions [3]: sufficient stability
